From ChEMBL document CHEMBL1147193, “New 5-substituted thiazolo[3,2-b][1,2,4]triazol-6-ones: synthesis and anticancer evaluation” (2007)

Tests used:
Format in all cases: functional
RPMI-8226 = assay: Growth inhibition of human RPMI8226 cells after 48 hrs by SRB protein assay; details: RPMI-8226, 48 h
Hs-578T = assay: Growth inhibition of human HS578T cells after 48 hrs by SRB protein assay
COLO 205 = assay: Growth inhibition of human COLO205 cells after 48 hrs by SRB protein assay; details: COLO 205, 48 h
K562 = assay: Growth inhibition of human K562 cells after 48 hrs by SRB protein assay; details: K562, 48 h
SK-MEL-5 = assay: Growth inhibition of human SK-MEL-5 cells after 48 hrs by SRB protein assay; details: SK-MEL-5, 48 h
UACC-257 = assay: Growth inhibition of human UACC257 cells after 48 hrs by SRB protein assay; details: UACC-257, 48 h
HCT-116 = assay: Growth inhibition of human HCT116 cells after 48 hrs by SRB protein assay; details: HCT-116, 48 h
NCI-H322M = assay: Growth inhibition of human NCI-H322M cells after 48 hrs by SRB protein assay
HCT-15 = assay: Growth inhibition of human HCT15 cells after 48 hrs by SRB protein assay; details: HCT-15, 48 h
OVCAR-8 = assay: Growth inhibition of human OVCAR8 cells after 48 hrs by SRB protein assay; details: OVCAR-8, 48 h
MOLT-4 = assay: Growth inhibition of human MOLT4 cells after 48 hrs by SRB protein assay; details: MOLT-4, 48 h
NCI-H226 = assay: Growth inhibition of human NCI-H226 cells after 48 hrs by SRB protein assay; details: NCI-H226, 48 h
HCC 2998 = assay: Growth inhibition of human HCC2998 cells after 48 hrs by SRB protein assay; details: HCC 2998, 48 h
U-251 = assay: Growth inhibition of human U251 cells after 48 hrs by SRB protein assay; details: U-251, 48 h
M14 = assay: Growth inhibition of human M14 cells after 48 hrs by SRB protein assay; details: M14, 48 h
BT-549 = assay: Growth inhibition of human BT549 cells after 48 hrs by SRB protein assay; details: BT-549, 48 h
OVCAR-5 = assay: Growth inhibition of human OVCAR5 cells after 48 hrs by SRB protein assay; details: OVCAR-5, 48 h
UACC-62 = assay: Growth inhibition of human UACC62 cells after 48 hrs by SRB protein assay; details: UACC-62, 48 h
NCI-H460 = assay: Growth inhibition of human NCI-H460 cells after 48 hrs by SRB protein assay; details: NCI-H460, 48 h
KM12 = assay: Growth inhibition of human KM12 cells after 48 hrs by SRB protein assay; details: KM12, 48 h
RXF 393 = assay: Growth inhibition of human RXF393 cells after 48 hrs by SRB protein assay; details: RXF 393, 48 h
EKVX = assay: Growth inhibition of human EKVX cells after 48 hrs by SRB protein assay
MCF7 [1] = assay: Growth inhibition of human MCF7 cells after 48 hrs by SRB protein assay; details: MCF7, 48 h
CCRF-CEM = assay: Growth inhibition of human CCRF-CEM cells after 48 hrs by SRB protein assay
HOP-62 = assay: Growth inhibition of human HOP62 cells after 48 hrs by SRB protein assay; details: HOP-62, 48 h
MCF7 [2] = assay: Anticancer activity against human MCF7 cells assessed as growth of cells at 100 uM relative to untreated cells
SF-295 = assay: Growth inhibition of human SF295 cells after 48 hrs by SRB protein assay; details: SF-295, 48 h
TK-10 = assay: Growth inhibition of human TK10 cells after 48 hrs by SRB protein assay; details: TK-10, 48 h
MDA-MB-435 = assay: Growth inhibition of human MDA-MB-435 cells after 48 hrs by SRB protein assay; details: MDA-MB-435, 48 h
HOP-92 = assay: Growth inhibition of human HOP92 cells after 48 hrs by SRB protein assay; details: HOP-92, 48 h
NCI/ADR-RES = assay: Growth inhibition of human NCI/ADR-RES cells after 48 hrs by SRB protein assay
A549 = assay: Growth inhibition of human A549/ATCC cells after 48 hrs by SRB protein assay; details: A549, 48 h

GI50 (RPMI-8226): 4.57 µM
GI50 (COLO 205): 21.4 µM
GI50 (K562): 95.5 µM
GI50 (SK-MEL-5): > 100 µM
GI50 (HCT-116): 15.8 µM
GI50 (NCI-H322M): > 100 µM
GI50 (HCT-15): 20.9 µM
GI50 (OVCAR-8): > 100 µM
GI50 (MOLT-4): 33.9 µM
GI50 (NCI-H226): 26.3 µM
GI50 (HCC 2998): 18.2 µM
GI50 (U-251): > 100 µM
GI50 (BT-549): 21.9 µM
GI50 (OVCAR-5): 17 µM
GI50 (NCI-H460): > 100 µM
GI50 (MCF7 [1]): 38.9 µM
GI50 (CCRF-CEM): 24.5 µM
GI50 (MDA-MB-435): > 100 µM
GI50 (A549): > 100 µM
Structure (SMILES): CCOC(=O)c1ccc(NC(=O)CC2Sc3ncnn3C2=O)cc1 (stereo not drawn)
TGI (RPMI-8226; read-out: Log TGI (converted)): 9.77 µM
GI50 (Hs-578T): > 100 µM
TGI (Hs-578T; read-out: Log TGI (converted)): > 100 µM
TGI (COLO 205; read-out: Log TGI (converted)): 40.7 µM
TGI (K562; read-out: Log TGI (converted)): > 100 µM
TGI (SK-MEL-5; read-out: Log TGI (converted)): > 100 µM
GI50 (UACC-257): 87.1 µM
TGI (UACC-257; read-out: Log TGI (converted)): > 100 µM
TGI (HCT-116; read-out: Log TGI (converted)): 29.5 µM
TGI (NCI-H322M; read-out: Log TGI (converted)): > 100 µM
TGI (HCT-15; read-out: Log TGI (converted)): 52.5 µM
TGI (OVCAR-8; read-out: Log TGI (converted)): > 100 µM
TGI (MOLT-4; read-out: Log TGI (converted)): 66.1 µM
TGI (NCI-H226; read-out: Log TGI (converted)): 66.1 µM
TGI (HCC 2998; read-out: Log TGI (converted)): 32.4 µM
TGI (U-251; read-out: Log TGI (converted)): > 100 µM
GI50 (M14): 18.6 µM
TGI (M14; read-out: Log TGI (converted)): 34.7 µM
TGI (BT-549; read-out: Log TGI (converted)): 43.7 µM
TGI (OVCAR-5; read-out: Log TGI (converted)): 31.6 µM
GI50 (UACC-62): 40.7 µM
TGI (UACC-62; read-out: Log TGI (converted)): > 100 µM
TGI (NCI-H460; read-out: Log TGI (converted)): > 100 µM
GI50 (KM12): > 100 µM
TGI (KM12; read-out: Log TGI (converted)): > 100 µM
GI50 (RXF 393): 21.4 µM
TGI (RXF 393; read-out: Log TGI (converted)): 67.6 µM
GI50 (EKVX): 28.2 µM
TGI (EKVX; read-out: Log TGI (converted)): 69.2 µM
TGI (MCF7 [1]; read-out: Log TGI (converted)): > 100 µM
TGI (CCRF-CEM; read-out: Log TGI (converted)): 77.6 µM
GI50 (HOP-62): 21.4 µM
TGI (HOP-62; read-out: Log TGI (converted)): 47.9 µM
Activity (MCF7 [2]): 0%
GI50 (SF-295): > 100 µM
TGI (SF-295; read-out: Log TGI (converted)): > 100 µM
GI50 (TK-10): 22.9 µM
TGI (TK-10; read-out: Log TGI (converted)): 55 µM
TGI (MDA-MB-435; read-out: Log TGI (converted)): > 100 µM
GI50 (HOP-92): 19.5 µM
TGI (HOP-92; read-out: Log TGI (converted)): 47.9 µM
GI50 (NCI/ADR-RES): 18.2 µM
TGI (NCI/ADR-RES; read-out: Log TGI (converted)): 36.3 µM
TGI (A549; read-out: Log TGI (converted)): > 100 µM
